Test results taken from ChEMBL document CHEMBL5058646 (2022).

Assays:
[1] = target: Bromodomain-containing protein 4 (Homo sapiens) (UniProt O60885); assay: BRD4 SGC Tm panel (DSF); details: Compound concentration 20.0 uM
[2] = target: Calcium/calmodulin-dependent protein kinase type II subunit beta (Homo sapiens) (UniProt Q13554); assay: CAMK2B SGC Tm panel (DSF); details: Compound concentration 20.0 uM
[3] = target: G protein-coupled receptor kinase 5 (Homo sapiens) (UniProt P34947); assay: GPRK5 SGC Tm panel (DSF); details: Compound concentration 20.0 uM
[4] = target: MAP/microtubule affinity-regulating kinase 4 (Homo sapiens) (UniProt Q96L34); assay: MARK4 SGC Tm panel (DSF); details: Compound concentration 20.0 uM
[5] = target: Serine/threonine-protein kinase Nek7 (Homo sapiens) (UniProt Q8TDX7); assay: NEK7 SGC Tm panel (DSF); details: Compound concentration 20.0 uM
[6] = target: Serine/threonine-protein kinase OSR1 (Homo sapiens) (UniProt O95747); assay: OSR1 SGC Tm panel (DSF); details: Compound concentration 20.0 uM
[7] = target: Serine/threonine-protein kinase RIO1 (Homo sapiens) (UniProt Q9BRS2); assay: RIOK1 SGC Tm panel (DSF); details: Compound concentration 20.0 uM
[8] = target: Ribosomal protein S6 kinase alpha-1 (Homo sapiens) (UniProt Q15418); assay: RPS6KA1 SGC Tm panel (DSF); details: Compound concentration 20.0 uM
[9] = target: STE20-like serine/threonine-protein kinase (Homo sapiens) (UniProt Q9H2G2); assay: SLK SGC Tm panel (DSF); details: Compound concentration 20.0 uM
[10] = target: Zinc finger and BTB domain-containing protein 7A (Homo sapiens) (UniProt O95365); details: SUD4, Compound concentration 1.0 uM
[11] = target: Zinc finger and BTB domain-containing protein 14 (Homo sapiens) (UniProt O43829); details: SUD4, Compound concentration 1.0 uM
[12] = target: Zinc finger and BTB domain-containing protein 21 (Homo sapiens) (UniProt Q9ULJ3); details: SUD4, Compound concentration 1.0 uM
[13] = target: T1, Zinc finger and BTB domain-containing protein 2 (Homo sapiens) (UniProt Q8N680); details: SUD4, Compound concentration 1.0 uM
T1 sequence (whole entry): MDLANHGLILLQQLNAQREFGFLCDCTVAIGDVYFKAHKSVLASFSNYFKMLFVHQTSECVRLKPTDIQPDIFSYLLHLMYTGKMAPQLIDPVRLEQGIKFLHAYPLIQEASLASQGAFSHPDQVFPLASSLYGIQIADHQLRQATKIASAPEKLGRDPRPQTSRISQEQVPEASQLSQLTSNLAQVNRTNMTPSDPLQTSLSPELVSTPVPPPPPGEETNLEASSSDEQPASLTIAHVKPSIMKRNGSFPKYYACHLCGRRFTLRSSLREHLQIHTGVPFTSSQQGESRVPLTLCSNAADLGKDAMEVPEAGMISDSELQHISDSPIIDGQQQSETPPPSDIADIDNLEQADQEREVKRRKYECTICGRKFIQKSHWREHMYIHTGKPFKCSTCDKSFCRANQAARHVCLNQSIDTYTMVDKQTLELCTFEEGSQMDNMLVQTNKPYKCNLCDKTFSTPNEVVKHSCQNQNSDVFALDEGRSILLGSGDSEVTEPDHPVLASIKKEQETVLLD

[14] = target: B-cell lymphoma 6 protein (Homo sapiens, UniProt P41182); details: OCI-Ly1, Compound concentration 1.0 uM
[15] = target: T2, Zinc finger and BTB domain-containing protein 11 (Homo sapiens) (UniProt O95625); details: OCI-Ly1, Compound concentration 1.0 uM
T2 sequence (whole entry): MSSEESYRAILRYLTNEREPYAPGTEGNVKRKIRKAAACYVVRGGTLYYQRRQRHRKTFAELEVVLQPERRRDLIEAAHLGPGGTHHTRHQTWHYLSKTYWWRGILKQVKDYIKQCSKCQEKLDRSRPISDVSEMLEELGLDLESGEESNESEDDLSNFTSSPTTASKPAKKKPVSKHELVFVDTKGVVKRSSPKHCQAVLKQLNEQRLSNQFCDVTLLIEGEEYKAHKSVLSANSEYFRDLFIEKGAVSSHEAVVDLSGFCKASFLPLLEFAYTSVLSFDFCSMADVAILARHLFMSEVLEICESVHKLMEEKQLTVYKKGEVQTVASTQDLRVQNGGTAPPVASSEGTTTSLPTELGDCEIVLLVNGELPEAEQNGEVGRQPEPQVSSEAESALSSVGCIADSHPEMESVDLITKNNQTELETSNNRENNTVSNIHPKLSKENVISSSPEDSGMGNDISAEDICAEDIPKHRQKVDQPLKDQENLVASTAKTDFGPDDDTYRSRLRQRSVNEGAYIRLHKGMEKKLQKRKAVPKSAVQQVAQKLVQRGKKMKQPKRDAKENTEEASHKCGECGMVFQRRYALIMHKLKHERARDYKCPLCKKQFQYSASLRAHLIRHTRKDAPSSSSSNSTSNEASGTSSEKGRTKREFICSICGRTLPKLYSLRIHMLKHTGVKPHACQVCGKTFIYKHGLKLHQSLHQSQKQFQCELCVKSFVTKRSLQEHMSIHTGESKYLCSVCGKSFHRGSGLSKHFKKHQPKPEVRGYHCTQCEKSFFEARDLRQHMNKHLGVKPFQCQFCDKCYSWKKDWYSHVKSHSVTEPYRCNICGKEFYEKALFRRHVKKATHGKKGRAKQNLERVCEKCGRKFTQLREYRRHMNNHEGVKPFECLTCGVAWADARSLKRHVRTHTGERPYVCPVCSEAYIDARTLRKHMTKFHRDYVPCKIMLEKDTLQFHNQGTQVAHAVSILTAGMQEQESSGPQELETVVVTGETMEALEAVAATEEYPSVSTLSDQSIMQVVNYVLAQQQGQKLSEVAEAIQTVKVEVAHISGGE

G protein-coupled receptor kinase 5 (Homo sapiens), sequence (P34947 whole entry, looked up): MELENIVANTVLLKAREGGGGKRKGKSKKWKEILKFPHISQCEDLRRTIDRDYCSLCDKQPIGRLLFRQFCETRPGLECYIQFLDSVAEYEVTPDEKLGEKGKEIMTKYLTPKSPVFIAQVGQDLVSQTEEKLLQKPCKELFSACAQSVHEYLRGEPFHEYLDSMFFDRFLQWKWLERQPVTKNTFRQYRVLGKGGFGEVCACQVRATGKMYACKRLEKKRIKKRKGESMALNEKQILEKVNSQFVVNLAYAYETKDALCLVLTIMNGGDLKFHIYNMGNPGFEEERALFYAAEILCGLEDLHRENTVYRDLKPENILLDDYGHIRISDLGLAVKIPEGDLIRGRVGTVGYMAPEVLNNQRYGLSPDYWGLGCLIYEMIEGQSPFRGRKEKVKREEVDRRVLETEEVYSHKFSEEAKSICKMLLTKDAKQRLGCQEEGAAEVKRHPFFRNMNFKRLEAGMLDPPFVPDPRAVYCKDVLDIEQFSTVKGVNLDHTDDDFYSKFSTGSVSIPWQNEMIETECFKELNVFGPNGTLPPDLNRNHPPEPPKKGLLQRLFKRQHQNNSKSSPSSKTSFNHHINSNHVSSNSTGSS
STE20-like serine/threonine-protein kinase (Homo sapiens), sequence (Q9H2G2 whole entry, looked up, the tested form may be a part): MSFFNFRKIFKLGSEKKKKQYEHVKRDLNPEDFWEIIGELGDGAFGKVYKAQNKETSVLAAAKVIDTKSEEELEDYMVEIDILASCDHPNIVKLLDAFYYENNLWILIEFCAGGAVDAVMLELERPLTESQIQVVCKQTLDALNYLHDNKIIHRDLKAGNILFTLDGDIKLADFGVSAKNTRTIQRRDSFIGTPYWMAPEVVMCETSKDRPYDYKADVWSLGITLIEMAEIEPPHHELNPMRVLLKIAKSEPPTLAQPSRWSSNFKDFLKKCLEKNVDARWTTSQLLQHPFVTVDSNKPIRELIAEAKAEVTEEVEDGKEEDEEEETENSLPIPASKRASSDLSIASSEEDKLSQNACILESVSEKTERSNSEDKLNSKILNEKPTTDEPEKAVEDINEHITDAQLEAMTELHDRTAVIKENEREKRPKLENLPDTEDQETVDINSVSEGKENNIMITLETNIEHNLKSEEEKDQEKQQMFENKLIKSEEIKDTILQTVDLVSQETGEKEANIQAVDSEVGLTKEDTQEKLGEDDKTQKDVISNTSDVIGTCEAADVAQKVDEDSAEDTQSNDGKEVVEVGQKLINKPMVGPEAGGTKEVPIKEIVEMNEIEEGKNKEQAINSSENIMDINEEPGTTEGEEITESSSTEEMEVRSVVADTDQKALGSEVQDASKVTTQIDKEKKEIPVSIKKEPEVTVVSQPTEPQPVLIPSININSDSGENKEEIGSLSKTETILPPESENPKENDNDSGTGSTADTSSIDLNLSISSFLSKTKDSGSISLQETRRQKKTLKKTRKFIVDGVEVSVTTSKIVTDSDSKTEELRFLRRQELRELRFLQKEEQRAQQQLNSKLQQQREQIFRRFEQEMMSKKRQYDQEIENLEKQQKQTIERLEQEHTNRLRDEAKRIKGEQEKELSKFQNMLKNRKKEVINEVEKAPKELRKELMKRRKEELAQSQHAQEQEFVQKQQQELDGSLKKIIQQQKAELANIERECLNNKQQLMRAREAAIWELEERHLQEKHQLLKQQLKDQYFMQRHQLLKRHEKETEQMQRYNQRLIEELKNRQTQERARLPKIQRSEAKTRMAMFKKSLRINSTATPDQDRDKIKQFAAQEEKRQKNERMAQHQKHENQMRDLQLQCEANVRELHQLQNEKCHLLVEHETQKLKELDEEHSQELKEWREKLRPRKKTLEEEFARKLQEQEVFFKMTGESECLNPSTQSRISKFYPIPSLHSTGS
Zinc finger and BTB domain-containing protein 7A (Homo sapiens), sequence (O95365 whole entry, the tested form may be a part): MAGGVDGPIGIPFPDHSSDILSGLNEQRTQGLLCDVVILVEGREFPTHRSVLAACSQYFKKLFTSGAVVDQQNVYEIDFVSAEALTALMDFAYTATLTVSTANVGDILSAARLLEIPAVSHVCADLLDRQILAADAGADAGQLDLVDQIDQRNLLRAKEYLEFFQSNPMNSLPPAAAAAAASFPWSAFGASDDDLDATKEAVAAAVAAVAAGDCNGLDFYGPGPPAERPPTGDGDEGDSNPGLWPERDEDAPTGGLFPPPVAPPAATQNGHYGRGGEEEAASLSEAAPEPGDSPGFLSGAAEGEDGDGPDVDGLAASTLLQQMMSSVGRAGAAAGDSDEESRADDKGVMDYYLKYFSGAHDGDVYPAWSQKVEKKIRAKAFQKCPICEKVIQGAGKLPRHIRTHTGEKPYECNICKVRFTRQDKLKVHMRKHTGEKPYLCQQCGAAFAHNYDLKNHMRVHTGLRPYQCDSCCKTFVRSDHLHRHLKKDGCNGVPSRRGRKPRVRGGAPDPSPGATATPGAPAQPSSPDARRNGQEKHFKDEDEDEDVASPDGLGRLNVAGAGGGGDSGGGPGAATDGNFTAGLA
Zinc finger and BTB domain-containing protein 21 (Homo sapiens), sequence (Q9ULJ3 whole entry, the tested form may be a part): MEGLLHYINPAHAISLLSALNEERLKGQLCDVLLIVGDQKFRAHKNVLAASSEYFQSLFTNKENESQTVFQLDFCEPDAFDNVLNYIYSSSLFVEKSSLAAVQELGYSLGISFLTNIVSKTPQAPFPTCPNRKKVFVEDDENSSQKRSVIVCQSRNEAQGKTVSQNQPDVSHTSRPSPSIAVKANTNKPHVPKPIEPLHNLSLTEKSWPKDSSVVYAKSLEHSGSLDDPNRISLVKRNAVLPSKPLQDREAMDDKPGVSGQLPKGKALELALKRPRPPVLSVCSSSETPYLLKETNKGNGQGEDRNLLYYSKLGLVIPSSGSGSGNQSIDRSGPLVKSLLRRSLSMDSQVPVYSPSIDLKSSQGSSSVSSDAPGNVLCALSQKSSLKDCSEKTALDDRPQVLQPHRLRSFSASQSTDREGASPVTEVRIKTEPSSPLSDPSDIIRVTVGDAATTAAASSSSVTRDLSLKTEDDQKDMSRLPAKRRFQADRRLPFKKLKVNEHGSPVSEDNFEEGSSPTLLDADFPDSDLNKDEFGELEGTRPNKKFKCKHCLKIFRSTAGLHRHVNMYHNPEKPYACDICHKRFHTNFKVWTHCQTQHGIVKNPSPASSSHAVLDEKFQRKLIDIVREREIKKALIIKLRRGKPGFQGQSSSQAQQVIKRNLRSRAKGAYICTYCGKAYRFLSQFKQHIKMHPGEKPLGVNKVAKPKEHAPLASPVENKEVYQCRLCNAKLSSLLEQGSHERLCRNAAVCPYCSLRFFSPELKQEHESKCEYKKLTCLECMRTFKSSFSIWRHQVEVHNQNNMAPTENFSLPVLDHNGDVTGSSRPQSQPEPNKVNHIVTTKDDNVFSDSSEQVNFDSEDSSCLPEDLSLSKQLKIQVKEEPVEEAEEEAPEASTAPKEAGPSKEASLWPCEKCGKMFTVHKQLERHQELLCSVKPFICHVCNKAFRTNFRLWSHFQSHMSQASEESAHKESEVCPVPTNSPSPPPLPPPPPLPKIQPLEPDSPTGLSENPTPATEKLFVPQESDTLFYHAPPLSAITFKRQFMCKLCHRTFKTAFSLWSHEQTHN
Ribosomal protein S6 kinase alpha-1 (Homo sapiens), sequence (Q15418 whole entry): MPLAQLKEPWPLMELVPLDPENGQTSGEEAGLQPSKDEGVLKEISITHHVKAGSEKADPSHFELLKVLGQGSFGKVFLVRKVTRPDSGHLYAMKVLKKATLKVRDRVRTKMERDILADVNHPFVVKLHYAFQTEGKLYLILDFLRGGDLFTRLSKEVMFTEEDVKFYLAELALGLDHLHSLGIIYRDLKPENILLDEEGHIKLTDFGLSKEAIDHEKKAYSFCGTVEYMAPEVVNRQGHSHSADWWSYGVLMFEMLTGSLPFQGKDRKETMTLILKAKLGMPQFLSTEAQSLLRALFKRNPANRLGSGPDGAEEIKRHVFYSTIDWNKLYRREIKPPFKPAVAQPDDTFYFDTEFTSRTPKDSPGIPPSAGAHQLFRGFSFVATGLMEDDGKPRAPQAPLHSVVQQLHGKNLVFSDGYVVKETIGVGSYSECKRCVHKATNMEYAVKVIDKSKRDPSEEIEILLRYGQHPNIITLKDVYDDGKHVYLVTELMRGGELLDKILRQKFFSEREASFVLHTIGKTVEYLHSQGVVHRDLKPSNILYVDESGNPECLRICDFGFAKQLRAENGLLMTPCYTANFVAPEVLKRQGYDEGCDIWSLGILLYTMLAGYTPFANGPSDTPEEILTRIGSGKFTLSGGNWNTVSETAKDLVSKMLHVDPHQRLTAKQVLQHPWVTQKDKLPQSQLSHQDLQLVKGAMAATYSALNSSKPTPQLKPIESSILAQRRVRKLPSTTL
Serine/threonine-protein kinase Nek7 (Homo sapiens), sequence (Q8TDX7 whole entry, looked up): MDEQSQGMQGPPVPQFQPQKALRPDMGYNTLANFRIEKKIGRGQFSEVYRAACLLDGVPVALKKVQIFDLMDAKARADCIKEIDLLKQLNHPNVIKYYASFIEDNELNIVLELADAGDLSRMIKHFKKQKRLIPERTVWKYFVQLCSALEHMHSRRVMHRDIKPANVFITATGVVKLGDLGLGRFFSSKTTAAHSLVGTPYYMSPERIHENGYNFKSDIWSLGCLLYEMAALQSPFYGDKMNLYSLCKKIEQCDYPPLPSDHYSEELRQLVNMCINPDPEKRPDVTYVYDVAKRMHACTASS
Serine/threonine-protein kinase OSR1 (Homo sapiens), sequence (O95747 2-527 limits assumed): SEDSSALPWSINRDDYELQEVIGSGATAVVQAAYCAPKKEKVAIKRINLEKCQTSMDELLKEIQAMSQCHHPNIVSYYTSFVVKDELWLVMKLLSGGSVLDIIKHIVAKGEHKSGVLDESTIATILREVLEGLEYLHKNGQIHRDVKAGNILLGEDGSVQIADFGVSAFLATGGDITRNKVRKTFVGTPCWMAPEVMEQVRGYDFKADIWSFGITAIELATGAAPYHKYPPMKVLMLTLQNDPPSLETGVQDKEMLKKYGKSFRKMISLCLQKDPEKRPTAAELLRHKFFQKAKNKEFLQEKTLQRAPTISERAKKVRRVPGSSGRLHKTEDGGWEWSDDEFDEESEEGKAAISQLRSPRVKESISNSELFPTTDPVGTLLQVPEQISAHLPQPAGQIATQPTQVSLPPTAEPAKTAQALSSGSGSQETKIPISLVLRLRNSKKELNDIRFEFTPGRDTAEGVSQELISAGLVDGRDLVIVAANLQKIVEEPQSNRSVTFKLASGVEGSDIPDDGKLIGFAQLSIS

C[C@@H]1CN(c2ncc(Cl)c(Nc3ccc4c(c3)n(CCC(C)(C)O)c(=O)n4C)n2)C[C@H](C)C1(F)F
active: LogFC [14] -2.79
inactive: Tm [1] 44 °C | Tm [2] 47 °C | Tm [3] 40 °C | Tm [4] 36 °C | Tm [5] 42 °C | Tm [6] 39 °C | Tm [7] 40 °C | Tm [8] 50 °C | Tm [9] 42 °C | LogFC [10] 0.0336 | LogFC [11] 0.0827 | LogFC [12] 0.0189 | LogFC [13] 0.153 | LogFC [15] -0.00672
